In patent US8933099B2, “Monocyclic pyridine derivative” (Eisai R&D Management Co., Ltd., priority 2013, dated 2015):
Read-outs that look alike come from different tables or passages of the source.

Tests used:
[1] = system: human stomach cancer cell line SNU-16 (FGFR2 gene amplification); test: SNU-16 growth inhibition assay; type: cell-based; conditions: Homo sapiens, SNU-16, 72 h
Protocol: In this assay, the growth inhibitory activity of a test substance in a human stomach cancer cell line harboring FGFR2 gene amplification is measured.
Then, 10 μL of Cell Counting Kit-8 (Dojindo Laboratories, CK04) was added to each well, and the resultant was incubated for 1 to 2 hours in a 5% CO2 incubator (37° C.) to cause a color reaction. The absorbance value was measured with ENVISION™ (PerkinElmer Co., Ltd.) at 450 nm.

[2] = system: normal human umbilical vein endothelial cells (HUVEC); test: HUVEC growth inhibition assay (VEGF-induced); type: cell-based; conditions: Homo sapiens, HUVEC, 72 h
Protocol: The absorbance value was measured with ENVISION™ (PerkinElmer Co., Ltd.) at 450 nm. The absorbance values of the wells without adding the test substance but with VEGF addition was defined as 100% and the absorbance values of the wells with neither the test substance nor VEGF addition was defined as 0%.

[3] = system: human stomach cancer cell line SNU-16 xenograft; test: Antitumor effect in SNU-16 subcutaneous xenograft model in mice; type: in vivo; conditions: oral, once a day for 11 days, tumor volume last day
Description: Human stomach cancer cell line SNU-16, which had been cultured in an RPMI-1640 medium containing 10% FBS, and penicillin and streptomycin, were adjusted to a concentration of 1×10^8 cells/mL with Hanks' Balanced Salt Solution (GIBCO #24020) to prepare a cell suspension, and the suspension was mixed with […] (BD Biosciences, Cat#354234) in a ratio of 1:1 to prepare a cell suspension in a concentration of 5×10^7 cells/ml. The cell suspension was inoculated in a volume of 100 ut into a subcutaneous part of a right flank of nude mice, 6 to 7 weeks of ages (BALB/cAiel-nu/nu, female, Clea Japan Inc.). Seven days after cell inoculation, the shortest diameter and the longest diameter of a tumor in each mouse were measured by using an electronic digital caliper (Digimatie™ caliper, Mitutoyo Corporation), so as to calculate the volume of the tumor in accordance with the following calculation formula: Tumor volume(mm^3)Longest diameter(mm)×Shortest diameter(mm)×Shortest diameter(mm)/2
(§1) On the basis of the volumes of tumors obtained on the first day of administration, the nude mice were grouped such that averages of the tumor volumes were substantially equal among the groups. Each test substance was dissolved in DMSO, Tween 80 was added thereto to prepare a solution in a 10-fold concentration and the thus prepared solution was stored at the freezer before use. Immediately before the administration, the stock solution was diluted with a 5% glucose solution to obtain a final administration solution (in which a ratio in % among DMSO, Tween 80 and the 5% glucose solution was 3.5:6.5:90). Each evaluation sample was orally administered to test substance administration group at a volume of 0.4 mL per 20 g of body weight once a day continuously for 11 days, and in a control group, an administration solvent was orally administered under the same conditions. Incidentally, the experiment was conducted on groups each consisting of 5 mice.
(§2) With respect to each of the control group and test substance administration group, a ratio of the weight measured on the final day to the weight measured on the first day (relative body weight: RBW) was calculated. If a ratio of the RBW of the test substance administration group/the RBW of the control group is 0.9 or mom, the corresponding test substance administration group was defined as a well-tolerated. In the test substance administration group thus defined as well-tolerated, a ratio of the tumor volume of the test substance-dosing group to the tumor volume of the control group obtained on the last day (TIC) (%) was calculated, and shown in Table 21.

[4] = system: human lung cancer cell line NCI-H1581 xenograft; test: Antitumor effect in NCI-H1581 subcutaneous xenograft model in mice; type: in vivo; conditions: oral, once a day for 11 days, tumor volume last day
Protocol: Human lung cancer cell line NCI-H1581, which had been cultured in RPMI-1640 medium containing 10% FBS, and penicillin and streptomycin, were adjusted to a concentration of 1×10^8 cells/mL with Hanks' Balanced Salt Solution(GIBCO #24020) to prepare a cell suspension, and the suspension was mixed with […] in a ratio of 1:1 to prepare a cell suspension in a concentration of 5×10^7 cells/mL. The cell suspension was inoculated in a volume of 100 μL into a subcutaneous part of a right flank of each of nude mice, 6 to 7 weeks of ages (BALB/cAJcl-nu/nu, female, Clea Japan Inc.). Ten to 11 days after the cell inoculation, the shortest diameter and the longest diameter of a tumor in each mouse were measured by using an electronic digital caliper (Digimatic™ caliper, Mitutoyo Corporation), so as to calculate the volume of the tumor in accordance with the following calculation formula: Tumor volume(mm^3)=Longest diameter(mm)×Shortest diameter(mm)×Shortest diameter(mm)/2
as §1
as §2, with “more,” for “mom,”, “22.” for “21.”

[5] = target: FGFR1 protein (Homo sapiens (Human), UniProt P11362); test: biochemical
[6] = read-out: SNU-16 (IC50 (nM)), cell growth, 3 days, Cell Counting Kit-8
[7] = read-out: HUVEC (IC50 (nM)), growth in the presence of VEGF 10 ng/mL, 3 days

Sequence of FGFR1 protein (P11362 22-822): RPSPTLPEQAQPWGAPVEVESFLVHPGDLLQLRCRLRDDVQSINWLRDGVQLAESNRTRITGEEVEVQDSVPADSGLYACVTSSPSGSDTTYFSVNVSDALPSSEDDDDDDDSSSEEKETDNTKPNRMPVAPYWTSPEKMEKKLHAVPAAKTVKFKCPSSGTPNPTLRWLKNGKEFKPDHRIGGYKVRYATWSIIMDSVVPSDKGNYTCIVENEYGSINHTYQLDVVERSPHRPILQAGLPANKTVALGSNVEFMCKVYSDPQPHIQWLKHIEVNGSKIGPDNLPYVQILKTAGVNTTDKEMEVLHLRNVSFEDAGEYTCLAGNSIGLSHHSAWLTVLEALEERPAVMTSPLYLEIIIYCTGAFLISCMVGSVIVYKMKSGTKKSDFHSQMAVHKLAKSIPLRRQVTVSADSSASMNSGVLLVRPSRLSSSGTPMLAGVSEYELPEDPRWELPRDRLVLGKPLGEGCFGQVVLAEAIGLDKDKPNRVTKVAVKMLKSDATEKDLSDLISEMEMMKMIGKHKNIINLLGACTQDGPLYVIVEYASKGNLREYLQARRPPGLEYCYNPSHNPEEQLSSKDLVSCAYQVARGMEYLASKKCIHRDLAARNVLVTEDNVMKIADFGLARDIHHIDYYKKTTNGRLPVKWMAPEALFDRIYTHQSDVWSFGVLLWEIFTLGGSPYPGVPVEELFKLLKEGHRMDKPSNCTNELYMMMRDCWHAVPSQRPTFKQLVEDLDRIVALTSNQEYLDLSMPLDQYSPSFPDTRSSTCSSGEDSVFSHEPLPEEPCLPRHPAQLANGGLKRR

IC50 ([1]; cell growth, 3 days, Cell Counting Kit-8, read-out: SNU-16 (IC50 (nM))) [nM]	IC50 [5] [nM]	SMILES	IC50 [1, 6] [nM]	IC50 [2, 7] [nM]	T/C (%) ([3]; 6.25 mg/kg)	T/C (%) ([3]; 12.5 mg/kg)	T/C (%) ([3]; 25 mg/kg)	T/C (%) ([3]; 50 mg/kg)	T/C (%) ([4]; 6.25 mg/kg)	T/C (%) ([4]; 12.5 mg/kg)	T/C (%) ([4]; 25 mg/kg)	T/C (%) ([4]; 50 mg/kg)	T/C (%) ([3]; 100 mg/kg)	IC50 ([2]; growth in the presence of VEGF 10 ng/mL, 3 days, read-out: HUVEC (IC50 (nM))) [nM]
		CCOCCOc1cc2c(ccn2C(=O)NC)cc1Oc1ccnc(NC(=O)c2ccc(C3CCN(CCO)CC3)cc2)c1 [Example 25, 6-(2-Ethoxyethoxy)-5-((2-(4-(1-(2-hydroxyethyl)piperidin-4-yl)benzamide)pyridin-4-yl)oxy)-N-methyl-1H-indole-1-carboxamide]	3.8	191	31	23	14	12						
		CCOCCOc1cc2c(ccn2C(=O)NC)cc1Oc1ccnc(NC(=O)c2ccc(C3CN(CC)C3)cc2)c1 [Example 26, 6-(2-Ethoxyethoxy)-5-((2-(4-(1-ethylazetidin-3-yl)benzamide)pyridin-4-yl)oxy)-N-methyl-1H-indole-1-carboxamide]	5.6	258	45	36	22	27						
		CCN1CCC(c2ccc(C(=O)Nc3cc(Oc4cc5ccn(C(=O)NC)c5cc4OC)ccn3)cc2)CC1 [Example 2, 5-((2-(4-(1-Ethylpiperidin-4-yl)benzamide)pyridin-4-yl)oxy)-6-methoxy-N-methyl-1H-indole-1-carboxamide]			51	28	18		36	19	11			
		CCOc1cc2c(ccn2C(=O)NC)cc1Oc1ccnc(NC(=O)c2ccc(C3CCN(CC)CC3)cc2)c1 [Example 16, 6-Ethoxy-5-((2-(4-(1-ethylpiperidin-4-yl)benzamide)pyridin-4-yl)oxy)-N-methyl-1H-indole-1-carboxamide]			39	21	15		50	25	15			
		CNC(=O)n1ccc2cc(Oc3ccnc(NC(=O)c4ccc(C5CCN(C)CC5)cc4)c3)c(OCCOC)cc21 [Example 21, 6-(2-Methoxyethoxy)-N-methyl-5-((2-(4-(1-methylpiperidin-4-yl)benzamide)pyridin-4-yl)oxy)-1H-indole-1-carboxamide]			49	26	16	7	36	18	10	6		
		CNC(=O)n1ccc2cc(Oc3ccnc(NC(=O)c4ccc(CN5CCC(O)CC5)cc4)c3)c(OC)cc21 [Example 9, 5-((2-(4-((4-Hydroxypiperidin-1-yl)methyl)benzamide)pyridin-4-yl)oxy)-6-methoxy-N-methyl-1H-indole-1-carboxamide]					55	39					30	
7.5	9.8	CNC(=O)n1ccc2cc(Oc3ccnc(NC(=O)c4ccc(C5CCNCC5)cc4)c3)c(OC)cc21 [Example 1, 6-Methoxy-N-methyl-5-((2-(4-(piperidin-4-yl)benzamide)pyridin-4-yl)oxy)-1H-indole-1-carboxamide]												98.7
		CNC(=O)n1ccc2cc(Oc3ccnc(NC(=O)c4ccc(C5CCN(CCO)CC5)cc4)c3)c(OC)cc21 [Example 3, 5-((2-(4-(1-(2-Hydroxyethyl)piperidin-4-yl)benzamide)pyridin-4-yl)oxy)-6-methoxy-N-methyl-1H-indole-1-carboxamide]			45	27	19							
